Legend:
Homo sapiens [1] = assay: Toxicity in VZV-infected 2 to <6 years aged pediatric patient assessed as at least one adverse event at 40.6 mg/kg, po tid; assay type: organism-based; parameters: dose 40.6 mg/kg, route oral; conditions: in vivo
Homo sapiens [2] = assay: Toxicity in HSV-infected 1 to <2 years aged pediatric patient assessed as incidence of headache at 30.9 mg/kg, po bid; assay type: organism-based; parameters: dose 30.9 mg/kg, route oral; conditions: in vivo
Homo sapiens [3] = assay: Toxicity in VZV-infected 1 to <2 years aged pediatric patient assessed as incidence of abdominal pain at 40.8 mg/kg, po tid; assay type: organism-based, Abdomen; parameters: dose 40.8 mg/kg, route oral; conditions: in vivo
Homo sapiens [4] = assay: Toxicity in VZV-infected 2 to <6 years aged pediatric patient assessed as pyrexia at 40.6 mg/kg, po tid; assay type: organism-based; parameters: dose 40.6 mg/kg, route oral; conditions: in vivo
Homo sapiens [5] = assay: Toxicity in HSV-infected 2 to <6 years aged pediatric patient assessed as incidence of headache at 27.6 mg/kg, po bid; assay type: organism-based; parameters: dose 27.6 mg/kg, route oral; conditions: in vivo
[6] = Cmax in 6 to <=12 years aged pediatric patient administered as single dose; assay type: ADME, organism-based; conditions: human, in vivo
Homo sapiens [7] = assay: Toxicity in VZV-infected 1 to <2 years aged pediatric patient assessed as pyrexia at 40.8 mg/kg, po tid; assay type: organism-based; parameters: dose 40.8 mg/kg, route oral; conditions: in vivo
Homo sapiens [8] = assay: Toxicity in VZV-infected 1 to <2 years aged pediatric patient assessed as incidence of vomiting at 40.8 mg/kg, po tid; assay type: organism-based; parameters: dose 40.8 mg/kg, route oral; conditions: in vivo
Homo sapiens [9] = assay: Toxicity in orally dosed HSV-infected patient assessed as incidence of nausea administered as bid; assay type: organism-based; conditions: in vivo, po
Homo sapiens [10] = assay: Toxicity in orally dosed HSV-infected patient assessed as incidence of vomiting administered as bid; assay type: organism-based; conditions: in vivo, po
Homo sapiens [11] = assay: Toxicity in VZV-infected 1 to <2 years aged pediatric patient assessed as incidence of headache at 40.8 mg/kg, po tid; assay type: organism-based; parameters: dose 40.8 mg/kg, route oral; conditions: in vivo
Homo sapiens [12] = assay: Toxicity in orally dosed HSV-infected patient assessed as incidence of diarrhea administered as bid; assay type: organism-based; conditions: in vivo, po
Homo sapiens [13] = assay: AUC (0 to last) in 2 to <6 years aged pediatric patient administered as single dose; assay type: ADME, organism-based, Plasma; parameters: time 0 - last; conditions: in vivo
Homo sapiens [14] = assay: Toxicity in HSV-infected 6 to <=12 years aged pediatric patient assessed as at least one adverse event at 23.5 mg/kg, po bid; assay type: organism-based; parameters: dose 23.5 mg/kg, route oral; conditions: in vivo
Homo sapiens [15] = assay: Toxicity in orally dosed VZV-infected patient assessed as incidence of abdominal pain administered as tid; assay type: organism-based, Abdomen; conditions: in vivo, po
Homo sapiens [16] = assay: Toxicity in HSV-infected 2 to <6 years aged pediatric patient assessed as at least one adverse event at 27.6 mg/kg, po bid; assay type: organism-based; parameters: dose 27.6 mg/kg, route oral; conditions: in vivo
Homo sapiens [17] = assay: Toxicity in orally dosed HSV-infected patient assessed as incidence of abdominal pain administered as bid; assay type: organism-based, Abdomen; conditions: in vivo, po
Homo sapiens [18] = assay: Toxicity in VZV-infected 2 to <6 years aged pediatric patient assessed as incidence of nausea at 40.6 mg/kg, po tid; assay type: organism-based; parameters: dose 40.6 mg/kg, route oral; conditions: in vivo
Homo sapiens [19] = assay: Toxicity in VZV-infected 6 to <=12 years aged pediatric patient assessed as incidence of headache at 35.5 mg/kg, po tid; assay type: organism-based; parameters: dose 35.5 mg/kg, route oral; conditions: in vivo
Homo sapiens [20] = assay: Toxicity in orally dosed VZV-infected patient assessed as incidence of pruritus administered as tid; assay type: organism-based; conditions: in vivo, po
Homo sapiens [21] = assay: Toxicity in HSV-infected 1 to <2 years aged pediatric patient assessed as incidence of diarrhea at 30.9 mg/kg, po bid; assay type: organism-based; parameters: dose 30.9 mg/kg, route oral; conditions: in vivo
Homo sapiens [22] = assay: AUC (0 to last) in 6 to <=12 years aged pediatric patient administered as single dose; assay type: ADME, organism-based, Plasma; parameters: time 0 - last; conditions: in vivo
Homo sapiens [23] = assay: Toxicity in VZV-infected 1 to <2 years aged pediatric patient assessed as incidence of cellulitis at 40.8 mg/kg, po tid; assay type: organism-based; parameters: dose 40.8 mg/kg, route oral; conditions: in vivo
Homo sapiens [24] = assay: AUC (0 to infinity) in 1 to <2 years aged pediatric patient administered as single dose; assay type: ADME, organism-based, Plasma; parameters: time infinity; conditions: in vivo
[25] = Apparent oral clearance in 1 to <2 years aged pediatric patient administered as single dose; assay type: ADME, organism-based; conditions: human, in vivo
Homo sapiens [26] = assay: Toxicity in VZV-infected 2 to <6 years aged pediatric patient assessed as incidence of diarrhea at 40.6 mg/kg, po tid; assay type: organism-based; parameters: dose 40.6 mg/kg, route oral; conditions: in vivo
Homo sapiens [27] = assay: Toxicity in orally dosed VZV-infected patient assessed as incidence of vomiting administered as tid; assay type: organism-based; conditions: in vivo, po
Homo sapiens [28] = assay: Toxicity in HSV-infected 1 to <2 years aged pediatric patient assessed as pyrexia at 30.9 mg/kg, po administered as bid; assay type: organism-based; parameters: dose 30.9 mg/kg, route oral; conditions: in vivo
[29] = Cmax in 1 to <2 years aged pediatric patient administered as single dose; assay type: ADME, organism-based; conditions: human, in vivo
Homo sapiens [30] = assay: Toxicity in VZV-infected 6 to <=12 years aged pediatric patient assessed as at least one adverse event at 35.5 mg/kg, po tid; assay type: organism-based; parameters: dose 35.5 mg/kg, route oral; conditions: in vivo
Homo sapiens [31] = assay: Toxicity in HSV-infected 1 to <2 years aged pediatric patient assessed as incidence of abdominal pain at 30.9 mg/kg, po bid; assay type: organism-based, Abdomen; parameters: dose 30.9 mg/kg, route oral; conditions: in vivo
Homo sapiens [32] = assay: Toxicity in VZV-infected 2 to <6 years aged pediatric patient assessed as incidence of headache at 40.6 mg/kg, po tid; assay type: organism-based; parameters: dose 40.6 mg/kg, route oral; conditions: in vivo
Homo sapiens [33] = assay: Toxicity in VZV-infected 1 to <2 years aged pediatric patient assessed as incidence of diarrhea at 40.8 mg/kg, po tid; assay type: organism-based; parameters: dose 40.8 mg/kg, route oral; conditions: in vivo
Homo sapiens [34] = assay: Toxicity in VZV-infected 1 to <2 years aged pediatric patient assessed as incidence of pruritus at 40.8 mg/kg, po tid; assay type: organism-based; parameters: dose 40.8 mg/kg, route oral; conditions: in vivo
[35] = Tmax in 1 to <2 years aged pediatric patient administered as single dose; assay type: ADME, organism-based; conditions: human, in vivo
Homo sapiens [36] = assay: Toxicity in HSV-infected 2 to <6 years aged pediatric patient assessed as incidence of nausea at 27.6 mg/kg, po bid; assay type: organism-based; parameters: dose 27.6 mg/kg, route oral; conditions: in vivo
Homo sapiens [37] = assay: Toxicity in orally dosed VZV-infected patient assessed as at least one adverse event administered as tid; assay type: organism-based; conditions: in vivo, po
Homo sapiens [38] = assay: Toxicity in VZV-infected 1 to <2 years aged pediatric patient assessed as incidence of nausea at 40.8 mg/kg, po tid; assay type: organism-based; parameters: dose 40.8 mg/kg, route oral; conditions: in vivo
Homo sapiens [39] = assay: Toxicity in VZV-infected 6 to <=12 years aged pediatric patient assessed as pyrexia at 35.5 mg/kg, po tid; assay type: organism-based; parameters: dose 35.5 mg/kg, route oral; conditions: in vivo
Homo sapiens [40] = assay: Toxicity in orally dosed HSV-infected patient assessed as at least one adverse event administered as bid; assay type: organism-based; conditions: in vivo, po
Homo sapiens [41] = assay: AUC (0 to last) in 1 to <2 years aged pediatric patient administered as single dose; assay type: ADME, organism-based, Plasma; parameters: time 0 - last; conditions: in vivo
Homo sapiens [42] = assay: Toxicity in orally dosed VZV-infected patient assessed as incidence of diarrhea administered as tid; assay type: organism-based; conditions: in vivo, po
[43] = Apparent oral clearance in 2 to <6 years aged pediatric patient administered as single dose; assay type: ADME, organism-based; conditions: human, in vivo

For `Nc1nc2c(ncn2CCC(CO)CO)c(=O)[nH]1` [PENCICLOVIR], the Activity (Homo sapiens [1]) was 52.6%, the Activity (Homo sapiens [2]) was 0% and the Activity (Homo sapiens [3]) was 0%. For the same compound, the Activity (Homo sapiens [4]) was 5.3%, the Activity (Homo sapiens [5]) was 0% and the Cmax [6] was 3410 ng/mL. For the same compound, the Activity (Homo sapiens [7]) was 11.1%, the Activity (Homo sapiens [8]) was 27.8% and the Activity (Homo sapiens [9]) was 6.4%. It also gave an Activity (Homo sapiens [10]) of 10.6%, an Activity (Homo sapiens [11]) of 0% and an Activity (Homo sapiens [12]) of 8.5%. For the same compound, the AUC (Homo sapiens [13]) was 6.31 ug/hr.ml, the Activity (Homo sapiens [14]) was 66.7% and the Activity (Homo sapiens [15]) was 3.8%. It also gave an Activity (Homo sapiens [16]) of 50%, an Activity (Homo sapiens [17]) of 4.3% and an Activity (Homo sapiens [18]) of 5.3%. It also gave an Activity (Homo sapiens [19]) of 12.5%, an Activity (Homo sapiens [20]) of 3.8% and an Activity (Homo sapiens [21]) of 7.7%. For the same compound, the AUC (Homo sapiens [22]) was 7.98 ug/hr.ml, the Activity (Homo sapiens [23]) was 0% and the AUC (Homo sapiens [24]) was 7.16 ug/hr.ml. For the same compound, the CL/F [25] was 278 mL/min, the Activity (Homo sapiens [26]) was 5.3% and the Activity (Homo sapiens [27]) was 9.4%. The Activity (Homo sapiens [28]) was 15.4%, the Cmax [29] was 3060 ng/mL and the Activity (Homo sapiens [30]) was 43.8%. The Activity (Homo sapiens [31]) was 0%, the Activity (Homo sapiens [32]) was 0% and the Activity (Homo sapiens [33]) was 11.1%. It also gave an Activity (Homo sapiens [34]) of 5.6%, a Tmax [35] of 1.08 h and an Activity (Homo sapiens [36]) of 0%. The Activity (Homo sapiens [37]) was 45.3%, the Activity (Homo sapiens [38]) was 0% and the Activity (Homo sapiens [39]) was 6.3%. The Activity (Homo sapiens [40]) was 55.3%, the AUC (Homo sapiens [41]) was 6.52 ug/hr.ml and the Activity (Homo sapiens [42]) was 11.3%. It also gave a CL/F [43] of 410 mL/min.

From ChEMBL document CHEMBL1649203, “Pharmacokinetics and safety of famciclovir in children with herpes simplex or varicella-zoster virus infection” (Antimicrob Agents Chemother, 2009)
